# In BindingDB's records for doi:10.1124/jpet.105.085217 (Imperial College, 2005):
# pKi: −log10 of the molar value.
# Biological target: T1, Glucocorticoid receptor (Homo sapiens, UniProt P04150)
# T1 sequence (P04150 whole entry): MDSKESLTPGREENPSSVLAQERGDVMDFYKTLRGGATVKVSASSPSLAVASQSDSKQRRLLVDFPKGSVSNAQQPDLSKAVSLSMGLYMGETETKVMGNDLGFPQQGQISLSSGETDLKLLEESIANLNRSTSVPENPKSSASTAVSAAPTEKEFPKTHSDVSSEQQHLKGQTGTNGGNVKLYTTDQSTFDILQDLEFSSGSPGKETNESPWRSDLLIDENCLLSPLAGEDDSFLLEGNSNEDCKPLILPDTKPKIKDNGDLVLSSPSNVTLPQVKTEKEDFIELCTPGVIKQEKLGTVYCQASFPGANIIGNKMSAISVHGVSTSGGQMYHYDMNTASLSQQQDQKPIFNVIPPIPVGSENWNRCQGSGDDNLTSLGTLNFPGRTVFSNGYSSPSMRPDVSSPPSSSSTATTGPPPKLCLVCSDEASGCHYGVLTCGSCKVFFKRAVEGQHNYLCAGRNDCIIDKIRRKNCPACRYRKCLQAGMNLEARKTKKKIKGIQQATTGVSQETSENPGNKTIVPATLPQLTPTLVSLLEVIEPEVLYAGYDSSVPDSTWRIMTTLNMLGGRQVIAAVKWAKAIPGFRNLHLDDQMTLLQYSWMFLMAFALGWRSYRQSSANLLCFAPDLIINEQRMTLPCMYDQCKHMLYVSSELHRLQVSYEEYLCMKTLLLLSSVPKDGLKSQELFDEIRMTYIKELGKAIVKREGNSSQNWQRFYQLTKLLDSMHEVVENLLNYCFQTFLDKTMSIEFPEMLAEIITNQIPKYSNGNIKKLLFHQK
compound,measurement,value
C[C@]12C=CC(=O)C=C1CC[C@@H]1[C@@H]2[C@@H](O)C[C@@]2(C)[C@H]1C[C@H]1O[C@@H](C3CCCCC3)O[C@]12C(=O)CO [desisobutyryl-ciclesonide],pKi,9.51
